Values quoted from earlier work as cited in patent EP4005587B1, “PHARMACEUTICAL COMPOSITION FOR TREATING LEVODOPA-INDUCED DYSKINESIA OR FOR SUPPRESSING PROGRESSION THEREOF” (Peptron, Inc., priority 2019, dated 2026).

How the values were obtained:
[1] = compared to GLP-1-Tf
[2] = tested on: MPTP mouse model for Parkinson's disease; conditions: given daily for 7 days after treatment

## exendin-4
[1]
  rotarod performance: improve rotarod performance
[2]
  neuro-protection: not effective
Lesioned rats; lesioned rats
  acute effects of L-DOPA: potentiated
Lesioned rats; rat, in vivo
  6-OHDA induced damage: reduces 6-OHDA induced damage
  LIDS: progressive reduction
